# Reference: patent US20100267561A1, “HERBICIDAL PYRIDAZINONE DERIVATIVES” (priority 2007, published 2010)
# Experiments:
# Type in all cases: in vivo
# [1] = tested on: bermudagrass (Cynodon dactylon); assay: Test B pre-/postemergence plant response; details: for Bermudagrass plant response rating: 8 g ai/ha
# Description: (§1) Seeds of plant species selected from blackgrass (Alopecurus myosuroides), downy bromegrass (Bromus tectorum), green foxtail (Setaria viridis), Italian ryegrass (Lolium multiflorum), wheat (Triticum aestivum), wild oat (Avena fatua), catchweed bedstraw (Galium aparine), bermudagrass (Cynodon dactylon), surinam grass (Brachiaria decumbens), cocklebur (Xanthium strumarium), corn (Zea mays), large crabgrass (Digitaria sanguinalis), woolly cupgrass (Eriochloa villosa), giant foxtail (Setaria faberii), goosegrass (Eleusine indica), johnsongrass (Sorghum halepense), kochia (Kochia scoparia), lambsquarters (Chenopodium album), morningglory (Ipomoea coccinea), eastern black (E.B.) nightshade (Solanum ptycanthum), yellow nutsedge (Cyperus esculentus), pigweed (Amaranthus retroflexus), common ragweed (Ambrosia elation), Russian thistle (Salsola iberica), soybean (Glycine max), common (oilseed) sunflower (Helianthus annuus), and velvetleaf (Abutilon theophrasti) were planted and treated preemergence with test chemicals formulated in a non-phytotoxic solvent mixture which included a surfactant.
# (§2) At the same time, plants selected from these crop and weed species and also winter barley (Hordeum vulgare), canarygrass (Phalaris minor), chickweed (Stellaria media) and windgrass (Apera spica-venti) were treated with postemergence applications of some of the test chemicals formulated in the same manner. Plants ranged in height from 2 to 18 cm (1- to 4-leaf stage) for postemergence treatments.
# (§3) Plant species in the flooded paddy test consisted of rice (Oryza sativa), umbrella sedge (Cyperus difformis), ducksalad (Heteranthera limosa) and barnyardgrass (Echinochloa crus-galli) grown to the 2-leaf stage for testing. At time of treatment, test pots were flooded to 3 cm above the soil surface, treated by application of test compounds directly to the paddy water, and then maintained at that water depth for the duration of the test. Treated plants and controls were maintained in a greenhouse for 13 to 15 days, after which time all species were compared to controls and visually evaluated. Plant response ratings, summarized in Table B, are based on a scale of 0 to 100 where 0 is no effect and 100 is complete control. A dash (-) response means no test result.
# [2] = tested on: goosegrass (Eleusine indica); assay: Test B pre-/postemergence plant response; details: for Goosegrass plant response rating: 8 g ai/ha
# Description: as §1, §2, §3
# [3] = tested on: pigweed (Amaranthus retroflexus); assay: Test B pre-/postemergence plant response; details: for Pigweed plant response rating: 8 g ai/ha
# Description: as §1, §2, §3
# [4] = tested on: giant foxtail (Setaria faberii); assay: Test B pre-/postemergence plant response; details: for Foxtail, Giant plant response rating: 8 g ai/ha
# Description: as §1, §2, §3
# [5] = tested on: velvetleaf (Abutilon theophrasti); assay: Test B pre-/postemergence plant response; details: for Velvetleaf plant response rating: 8 g ai/ha
# Description: as §1, §2, §3
# [6] = tested on: common (oilseed) sunflower (Helianthus annuus); assay: Test B pre-/postemergence plant response; details: Preemergence
# Description: as §1, §2, §3
# [7] = tested on: johnsongrass (Sorghum halepense); assay: Test B pre-/postemergence plant response; details: for Johnsongrass plant response rating: 8 g ai/ha
# Description: as §1, §2, §3
# [8] = tested on: blackgrass (Alopecurus myosuroides); assay: Test B pre-/postemergence plant response; details: for Blackgrass plant response rating: 8 g ai/ha
# Description: as §1, §2, §3
# soybean (Glycine max) = assay: Test B pre-/postemergence plant response; details: for Soybean plant response rating: 8 g ai/ha
# Description: as §1, §2, §3
# [9] = tested on: wheat (Triticum aestivum); assay: Test B pre-/postemergence plant response; details: for Wheat plant response rating: 8 g ai/ha
# Description: as §1, §2, §3
# [10] = tested on: downy bromegrass (Bromus tectorum); assay: Test B pre-/postemergence plant response; details: for Bromegrass, Downy plant response rating: 8 g ai/ha
# Description: as §1, §2, §3
# [11] = tested on: giant foxtail (Setaria faberi); assay: Test A pre-/postemergence plant response
# Method in brief: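 Soil: loam blended with sand. Formulation: non-phytotoxic solvent mixture plus surfactant, applied as preemergence directed soil spray and as postemergence spray. Scoring: visual, 0 no effect to 100 complete control, roughly 10 days post-treatment in greenhouse.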
# [12] = Postemergence, 16 g ai/ha, scale 0 to 100
# [13] = Postemergence, 31 g ai/ha, scale 0 to 100, 0 no effect, 100 complete control
# [14] = Postemergence, 62 g ai/ha, scale 0 to 100, 0 no effect, 100 complete control
# [15] = Preemergence, 16 g ai/ha, scale 0 to 100 (0 no effect, 100 complete control)
# [16] = Preemergence, 31 g ai/ha, 0 to 100 scale, 0 no effect, 100 complete control
# [17] = Preemergence, 62 g ai/ha, scale 0 to 100
structure (smiles),measurement,setting,value
Cc1cc(-c2ccc(Cl)cc2)nn1-c1c(OS(C)(=O)=O)cnn(C)c1=O [Compound 36],Bermudagrass plant response rating,"[1]; postemergence, 0-100 scale",40
same,"Plant response rating, Bermudagrass",[1]; [12],80
same,"Plant response rating, Bermudagrass",[1]; [13],100
same,"Plant response rating, Bermudagrass",[1]; [14],100
same,Bermudagrass plant response rating,"[1]; Preemergence, scale 0 to 100 (0 no effect, 100 complete control)",98
same,"Plant response rating, Bermudagrass",[1]; [15],100
same,"Plant response rating, Bermudagrass",[1]; [16],100
same,"Plant response rating, Bermudagrass",[1]; [17],100
same,Goosegrass plant response rating,"[2]; postemergence, 0-100 scale",0
same,"Plant response rating, Goosegrass",[2]; [12],100
same,"Plant response rating, Goosegrass",[2]; [13],100
same,"Plant response rating, Goosegrass",[2]; [14],100
same,"Plant response rating, Goosegrass",[2]; [15],100
same,"Plant response rating, Goosegrass",[2]; [16],100
same,"Plant response rating, Goosegrass",[2]; [17],100
same,Goosegrass plant response rating,"[2]; Preemergence, scale 0 to 100",80
same,Pigweed plant response rating,"[3]; postemergence, 0-100 scale",0
same,"Plant response rating, Pigweed",[3]; [12],0
same,"Plant response rating, Pigweed",[3]; [13],0
same,"Plant response rating, Pigweed",[3]; [14],0
same,"Plant response rating, Pigweed",[3]; [15],0
same,"Plant response rating, Pigweed",[3]; [16],0
same,"Plant response rating, Pigweed",[3]; [17],0
same,Pigweed plant response rating,"[3]; Preemergence, scale 0 to 100",0
same,"Foxtail, Giant plant response rating","[4]; postemergence, 0-100 scale",0
same,"Plant response rating, Foxtail, Giant",[4]; [12],35
same,"Plant response rating, Foxtail, Giant",[4]; [13],60
same,"Plant response rating, Foxtail, Giant",[4]; [14],60
same,"Plant response rating, Foxtail, Giant",[4]; [15],100
same,"Plant response rating, Foxtail, Giant",[4]; [16],100
same,"Plant response rating, Foxtail, Giant",[4]; [17],100
same,"Foxtail, Giant plant response rating","[4]; Preemergence, scale 0 to 100",100
same,Velvetleaf plant response rating,"[5]; postemergence, 0-100 scale",0
same,"Plant response rating, Velvetleaf",[5]; [12],0
same,"Plant response rating, Velvetleaf",[5]; [14],0
same,"Plant response rating, Velvetleaf",[5]; [15],0
same,"Plant response rating, Velvetleaf",[5]; [16],0
same,"Plant response rating, Velvetleaf",[5]; [17],0
same,Velvetleaf plant response rating,"[5]; Preemergence, scale 0 to 100",0
same,"Plant response rating, Sunflower","[6]; 16 g ai/ha, scale 0 to 100 (0 no effect, 100 complete control)",0
same,"Plant response rating, Sunflower","[6]; 31 g ai/ha, 0 to 100 scale, 0 no effect, 100 complete control",0
same,"Plant response rating, Sunflower","[6]; 62 g ai/ha, scale 0 to 100",0
same,Sunflower plant response rating,"[6]; 8 g ai/ha, scale 0 to 100",0
same,Johnsongrass plant response rating,"[7]; postemergence, 0-100 scale",0
same,"Plant response rating, Johnsongrass",[7]; [12],50
same,"Plant response rating, Johnsongrass",[7]; [13],95
same,"Plant response rating, Johnsongrass",[7]; [14],100
same,"Plant response rating, Johnsongrass",[7]; [16],40
same,"Plant response rating, Johnsongrass",[7]; [17],100
same,Johnsongrass plant response rating,"[7]; Preemergence, scale 0 to 100",0
same,Blackgrass plant response rating,"[8]; postemergence, 0-100 scale",0
same,"Plant response rating, Blackgrass",[8]; [12],50
same,"Plant response rating, Blackgrass",[8]; [13],50
same,"Plant response rating, Blackgrass",[8]; [14],80
same,"Plant response rating, Blackgrass",[8]; [15],80
same,"Plant response rating, Blackgrass",[8]; [16],100
same,"Plant response rating, Blackgrass",[8]; [17],100
same,Blackgrass plant response rating,"[8]; Preemergence, scale 0 to 100",80
same,Soybean plant response rating,"soybean (Glycine max); postemergence, 0-100 scale",0
same,"Plant response rating, Soybean",soybean (Glycine max); [12],0
same,"Plant response rating, Soybean",soybean (Glycine max); [14],0
same,"Plant response rating, Soybean",soybean (Glycine max); [15],0
same,"Plant response rating, Soybean",soybean (Glycine max); [16],0
same,"Plant response rating, Soybean",soybean (Glycine max); [17],0
same,Soybean plant response rating,"soybean (Glycine max); Preemergence, scale 0 to 100",0
same,Wheat plant response rating,"[9]; postemergence, 0-100 scale",0
same,"Plant response rating, Wheat",[9]; [12],5
same,"Plant response rating, Wheat",[9]; [14],85
same,"Plant response rating, Wheat",[9]; [15],0
same,"Plant response rating, Wheat",[9]; [16],5
same,"Plant response rating, Wheat",[9]; [17],60
same,Wheat plant response rating,"[9]; Preemergence, scale 0 to 100",0
same,"Bromegrass, Downy plant response rating","[10]; postemergence, 0-100 scale",0
same,"Plant response rating, Bromegrass, Downy",[10]; [12],5
same,"Plant response rating, Bromegrass, Downy",[10]; [13],40
same,"Plant response rating, Bromegrass, Downy",[10]; [14],50
same,"Plant response rating, Bromegrass, Downy",[10]; [15],50
same,"Plant response rating, Bromegrass, Downy",[10]; [16],50
same,"Plant response rating, Bromegrass, Downy",[10]; [17],90
same,"Bromegrass, Downy plant response rating","[10]; Preemergence, scale 0 to 100",0
same,"Plant response rating, Foxtail, Giant","[11]; Postemergence, 31 g ai/ha, 0 to 100 scale (0 no effect, 100 complete control)",90
same,"Plant response rating, Foxtail, Giant","[11]; Postemergence, 125 g ai/ha, 0 to 100 scale, 0 no effect, 100 complete control",90
same,"Plant response rating, Foxtail, Giant","[11]; Preemergence, 31 g ai/ha, 0 to 100 scale, 0 is no effect, 100 is complete control",100
same,"Plant response rating, Foxtail, Giant","[11]; Preemergence, 125 g ai/ha, 0 to 100 scale (0 no effect, 100 complete control)",100
